Data taken from patent US5395947A, “Platinum(II) complex and processes for preparing the same” (Sunkyong Industries, Ltd., priority 1991, dated 1995).

Experiments:
[1] = test system: murine leukemia L1210 cells; assay: Growth inhibition test on cultured murine leukemia L1210 cells; assay type: cell-based; conditions: 48 hours, 37° C., Trypan blue viability
In short: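 Read-out is Trypan blue (0.17%) viability versus compound-free controls. Cells, 1×10^5, were cultured 48 h at 37° C under 5% CO2 in RPMI 1640/10% FCS containing various compound concentrations.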

[2] = test system: murine leukemia L1210; assay: Antitumor activity test on murine leukemia L1210 in vivo; parameters: species or system male BDF1 mice; conditions: days 1, 5, 9
In short: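 Male BDF1 mice (6 weeks, 21±3 g; n=7) received 1×10^6 leukemia cells into the peritoneum on day 0, then test compound suspended or dissolved in 0.5% CMC i.p. on days 1, 5, 9. Activity expressed as T/C %, mean survival treated versus 0.5% CMC-injected controls.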

[3] = Test for water solubility; assay type: physicochemical; conditions: water
From the text: 3. Test for water solubility
A standard plot of UV absorbance(220 nm) vs. concentration was made; and employed to determine water-solubility.
The mixture was then passed through a 0.45 micron disposable membrane filter before dilution and UV measurement.

[4] = test system: ICR mice; assay: Acute toxicity test; assay type: in vivo; parameters: Lethality: unit not given here; conditions: for Lethality: 10080 min
In short: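 Single i.p. administration to ICR mice (7 weeks old, both sexes, n=6/group); appearance and mortality logged over 7 days, dead animals autopsied for gross pathology.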

## CC1(C)O[C@H](CN)[C@@H](CN)O1.O=C1C[O][Pt][O]1 [Example 2, (glycolato-O,O')[(4R,5R)-4,5-bis(aminomethyl)-2,2-dimethyl-1,3-dioxolane]platinum(II)]
[1]
  IC50 (concentration required for 50% inhibition of growth): 0.15 µg/mL
[2]; 3.1 mg/kg i.p.
  T/C (%): 112%
[2]; 6.2 mg/kg i.p.
  T/C (%): 179%
[2]; 12.5 mg/kg i.p.
  T/C (%): 201%
[2]; 25 mg/kg i.p.
  T/C (%): toxic
[2]; 50 mg/kg i.p.
  T/C (%): toxic
[3]
  Solubility in water: 17500 µg/mL
[4]; female, 25.0 mg/kg i.p.
  Number of dead mice for 7 days: 0/6
  Number of dead mice, 1st day: 0/6
[4]; female, 32.5 mg/kg i.p.
  Number of dead mice for 7 days: 3/6
  Number of dead mice, 1st day: 0/6
  Number of dead mice, 3rd day: 2/6
  Number of dead mice, 4th day: 1/4
  Lethality: 50.0
[4]; female, 42.3 mg/kg i.p.
  Number of dead mice for 7 days: 4/6
  Number of dead mice, 1st day: 0/6
  Number of dead mice, 3rd day: 3/6
  Number of dead mice, 4th day: 1/3
  Lethality: 66.7
[4]; female, 55.0 mg/kg i.p.
  Number of dead mice for 7 days: 6/6
  Number of dead mice, 1st day: 0/6
  Number of dead mice, 3rd day: 4/6
  Number of dead mice, 4th day: 1/2
  Number of dead mice, 5th day: 1/1
  Lethality: 100.0
[4]; female, 71.4 mg/kg i.p.
  Number of dead mice for 7 days: 6/6
  Number of dead mice, 1st day: 0/6
  Number of dead mice, 3rd day: 4/6
  Number of dead mice, 4th day: 2/2
  Lethality: 100.0
[4]; male, 25.0 mg/kg i.p.
  Number of dead mice for 7 days: 0/6
  Number of dead mice, 1st day: 0/6
[4]; male, 32.5 mg/kg i.p.
  Number of dead mice for 7 days: 3/6
  Number of dead mice, 1st day: 0/6
  Number of dead mice, 3rd day: 1/6
  Number of dead mice, 4th day: 1/5
  Number of dead mice, 5th day: 1/4
  Lethality: 50.0
[4]; male, 42.3 mg/kg i.p.
  Number of dead mice for 7 days: 5/6
  Number of dead mice, 1st day: 0/6
  Number of dead mice, 3rd day: 3/6
  Number of dead mice, 4th day: 2/3
  Lethality: 83.3
[4]; male, 55.0 mg/kg i.p.
  Number of dead mice for 7 days: 6/6
  Number of dead mice, 1st day: 0/6
  Number of dead mice, 3rd day: 4/6
  Number of dead mice, 4th day: 1/2
  Number of dead mice, 5th day: 1/1
  Lethality: 100.0
[4]; male, 71.4 mg/kg i.p.
  Number of dead mice for 7 days: 6/6
  Number of dead mice, 1st day: 0/6
  Number of dead mice, 3rd day: 4/6
  Number of dead mice, 4th day: 2/2
  Lethality: 100.0

## CC(C)C1O[C@H](CN)[C@@H](CN)O1.O=C1C[O][Pt][O]1 [Example 7, (glycolato-O,O')[(4R,5R)-4,5-bis(aminomethyl)-2-isopropyl-1,3-dioxolane]platinum(II)]
[1]
  IC50 (concentration required for 50% inhibition of growth): 0.06 µg/mL
[2]; 3.1 mg/kg i.p.
  T/C (%): 155%
[2]; 6.2 mg/kg i.p.
  T/C (%): 166%
[2]; 12.5 mg/kg i.p.
  T/C (%): 191%
[2]; 25 mg/kg i.p.
  T/C (%): toxic
[2]; 50 mg/kg i.p.
  T/C (%): toxic
[3]
  Solubility in water: > 30000 µg/mL
[4]; female, 25.0 mg/kg i.p.
  Number of dead mice for 7 days: 0/6
  Number of dead mice, 1st day: 0/6
[4]; female, 32.5 mg/kg i.p.
  Number of dead mice for 7 days: 0/6
  Number of dead mice, 1st day: 0/6
[4]; female, 42.3 mg/kg i.p.
  Number of dead mice for 7 days: 1/6
  Number of dead mice, 1st day: 0/6
  Number of dead mice, 3rd day: 1/6
  Lethality: 16.7
[4]; female, 55.0 mg/kg i.p.
  Number of dead mice for 7 days: 2/6
  Number of dead mice, 1st day: 0/6
  Number of dead mice, 3rd day: 1/6
  Number of dead mice, 4th day: 1/5
  Lethality: 33.3
[4]; female, 71.4 mg/kg i.p.
  Number of dead mice for 7 days: 4/6
  Number of dead mice, 1st day: 0/6
  Number of dead mice, 3rd day: 3/6
  Number of dead mice, 4th day: 1/3
  Lethality: 66.7
[4]; male, 25.0 mg/kg i.p.
  Number of dead mice for 7 days: 0/6
  Number of dead mice, 1st day: 0/6
[4]; male, 32.5 mg/kg i.p.
  Number of dead mice for 7 days: 0/6
  Number of dead mice, 1st day: 0/6
[4]; male, 42.3 mg/kg i.p.
  Number of dead mice for 7 days: 2/6
  Number of dead mice, 1st day: 0/6
  Number of dead mice, 3rd day: 1/6
  Number of dead mice, 5th day: 1/5
  Lethality: 33.3
[4]; male, 55.0 mg/kg i.p.
  Number of dead mice for 7 days: 2/6
  Number of dead mice, 1st day: 0/6
  Number of dead mice, 3rd day: 1/6
  Number of dead mice, 4th day: 1/5
  Lethality: 33.3
[4]; male, 71.4 mg/kg i.p.
  Number of dead mice for 7 days: 4/6
  Number of dead mice, 1st day: 0/6
  Number of dead mice, 3rd day: 2/6
  Number of dead mice, 4th day: 2/4
  Lethality: 66.7

## O=C1[O][Pt-2]2([NH2+]CC3OC4(CCCC4)OC3C[NH2+]2)[O]C(=O)C12CCC2 [Example 30, cis-cyclobutane-1,1-dicarboxylato[(4R,5R)-4,5-bis(aminomethyl)-1,3-dioxolane-2-spiro-1'-cyclopentane]platinum(II)]
[1]
  IC50 (concentration required for 50% inhibition of growth): 0.55 µg/mL
[2]; 6.2 mg/kg i.p.
  T/C (%): 109%
[2]; 12.5 mg/kg i.p.
  T/C (%): 122%
[2]; 25 mg/kg i.p.
  T/C (%): 110%
[2]; 50 mg/kg i.p.
  T/C (%): 148%
[2]; 100 mg/kg i.p.
  T/C (%): 185%
[3]
  Solubility in water: 1900 µg/mL
[4]; female, 94 mg/kg i.p.
  Number of dead mice for 7 days: 0/6
  Number of dead mice, 1st day: 0/6
[4]; female, 123 mg/kg i.p.
  Number of dead mice for 7 days: 0/6
  Number of dead mice, 1st day: 0/6
[4]; female, 160 mg/kg i.p.
  Number of dead mice for 7 days: 1/6
  Number of dead mice, 1st day: 0/6
  Number of dead mice, 5th day: 1/6
  Lethality: 16.7
[4]; female, 208 mg/kg i.p.
  Number of dead mice for 7 days: 4/6
  Number of dead mice, 1st day: 0/6
  Number of dead mice, 3rd day: 2/6
  Number of dead mice, 4th day: 2/4
  Lethality: 66.7
[4]; female, 270 mg/kg i.p.
  Number of dead mice for 7 days: 6/6
  Number of dead mice, 1st day: 0/6
  Number of dead mice, 2nd day: 4/6
  Number of dead mice, 3rd day: 2/2
  Lethality: 100.0
[4]; male, 94 mg/kg i.p.
  Number of dead mice for 7 days: 0/6
  Number of dead mice, 1st day: 0/6
[4]; male, 123 mg/kg i.p.
  Number of dead mice for 7 days: 0/6
  Number of dead mice, 1st day: 1/6
[4]; male, 160 mg/kg i.p.
  Number of dead mice for 7 days: 1/6
  Number of dead mice, 1st day: 0/6
  Number of dead mice, 4th day: 1/6
  Lethality: 16.7
[4]; male, 208 mg/kg i.p.
  Number of dead mice for 7 days: 5/6
  Number of dead mice, 1st day: 1/6
  Number of dead mice, 2nd day: 1/6
  Number of dead mice, 3rd day: 3/5
  Lethality: 83.3
[4]; male, 270 mg/kg i.p.
  Number of dead mice for 7 days: 6/6
  Number of dead mice, 1st day: 0/6
  Number of dead mice, 2nd day: 2/6
  Number of dead mice, 3rd day: 4/4
  Lethality: 100.0

## CC1(C)OC2C[NH2+][Pt-2]3([NH2+]CC2O1)[O]C(=O)C1(CCC1)C(=O)[O]3 [Example 26, cis-cyclobutane-1,1-dicarboxylato[(4R,5R)-4,5-bis(aminomethyl)-2,2-dimethyl-1,3-dioxolane]platinum(II)]
[1]
  IC50 (concentration required for 50% inhibition of growth): 0.65 µg/mL
[2]; 6.2 mg/kg i.p.
  T/C (%): 124%
[2]; 12.5 mg/kg i.p.
  T/C (%): 170%
[2]; 25 mg/kg i.p.
  T/C (%): 217%
[2]; 50 mg/kg i.p.
  T/C (%): 283%
[2]; 100 mg/kg i.p.
  T/C (%): 317%
[3]
  Solubility in water: 2000 µg/mL
[4]; female, 160 mg/kg i.p.
  Number of dead mice for 7 days: 0/6
  Number of dead mice, 1st day: 0/6
[4]; female, 208 mg/kg i.p.
  Number of dead mice for 7 days: 0/6
  Number of dead mice, 1st day: 0/6
[4]; female, 270 mg/kg i.p.
  Number of dead mice for 7 days: 1/6
  Number of dead mice, 1st day: 0/6
  Number of dead mice, 5th day: 1/6
  Lethality: 16.7
[4]; female, 352 mg/kg i.p.
  Number of dead mice for 7 days: 4/6
  Number of dead mice, 1st day: 0/6
  Number of dead mice, 3rd day: 2/6
  Number of dead mice, 4th day: 2/4
  Lethality: 66.7
[4]; female, 457 mg/kg i.p.
  Number of dead mice for 7 days: 6/6
  Number of dead mice, 1st day: 0/6
  Number of dead mice, 2nd day: 4/6
  Number of dead mice, 3rd day: 2/2
  Lethality: 100.0
[4]; male, 160 mg/kg i.p.
  Number of dead mice for 7 days: 0/6
  Number of dead mice, 1st day: 0/6
[4]; male, 208 mg/kg i.p.
  Number of dead mice for 7 days: 1/6
  Number of dead mice, 1st day: 0/6
  Number of dead mice, 3rd day: 1/6
  Lethality: 16.7
[4]; male, 270 mg/kg i.p.
  Number of dead mice for 7 days: 2/6
  Number of dead mice, 1st day: 0/6
  Number of dead mice, 4th day: 2/6
  Lethality: 33.3
[4]; male, 352 mg/kg i.p.
  Number of dead mice for 7 days: 4/6
  Number of dead mice, 1st day: 0/6
  Number of dead mice, 2nd day: 1/6
  Number of dead mice, 3rd day: 3/5
  Lethality: 66.7
[4]; male, 457 mg/kg i.p.
  Number of dead mice for 7 days: 6/6
  Number of dead mice, 1st day: 0/6
  Number of dead mice, 2nd day: 2/6
  Number of dead mice, 3rd day: 4/4
  Lethality: 100.0
